Key:
[1] = test system: PARP cleavage, CHOP, s-XBP1, HERPUD1 in ATC cells; experiment: PARP cleavage and UPR protein expression in ATC cells; assay type: cell-based; details: EC50 dose for 72H; all three ATC cells; abrogated with OA
Experimental: Protein extraction and western blot analysis was performed as previously described (Copland J A, Marlow L A, Kurakata S, et al. Novel high-affinity PPARgamma agonist alone and in combination with paclitaxel inhibits human anaplastic thyroid carcinoma tumor growth via p21WAF1/CIP1. Oncogene. Apr 13 2006; 25(16):2304-2317). Primary antibodies included SCD1 (Sigma-Aldrich, #HPA012107), BiP (Cell Signaling, #3183), CHOP (Cell Signaling, #2895), sXBP1(Santa Cruz Biotechnology, #sc-7160), PARP(Cell Signaling, #9542), and β-actin (Sigma-Aldrich, #A5441).
Cells were plated in 4-chamber slides (Thermo Scientific) prior to drug treatment. […]
Exogenous application of MUFAs, such as oleic or palmitoleic acid, can rescue the proliferative defects generated by SCD1 inhibition as these are the primary products of SCD1 enzymatic activity (Roongta U V, Pabalan J G, Wang X, Ryseck R P, Fargnoli J, Henley B J, Yang W P, Zhu J, Madireddi M T, Lawrence R M, Wong T W, Rupnow B A. Cancer cell dependence on unsaturated fatty acids implicates stearoyl-CoA desaturase as a target for cancer therapy. Mol Cancer Res. 2011; 9(11):1551-61). […] Transcriptional upregulation of UPR markers including GADD45a (Growth arrest and DNA damage inducible transcript 1, DDIT1), DDIT3 (DNA damage inducible transcript 3, CHOP), and HERPUD1 homocysteine-inducible, ER stress inducible, ubiquitin-like-1) were evaluated by QPCR.

[2] = test system: A498, ACHN, and Caki1 cell lines; experiment: Oleic acid (OA) rescue assay of cell proliferation in ccRCC cells; assay type: cell-based; details: EC50 dose of compound with OA (5 μg/μL); all three cell lines
Experimental: Cells were seeded at 5,000 cells/well in clear-bottom 96-well plates in triplicate in Maintenance Media. Drug treatment was applied at a concentration of 1:1000 in reduced serum (3%) Maintenance Media. After 72 hours, cells were washed with PBS, and stored at −80° C. prior to analysis using CyQuant® Proliferation Analysis Kit (Invitrogen) as per manufacturers' protocol for relative fluorescence units. Alternatively, cells were plated 2×10^5/well in 12-well plates (Midwest Scientific) in triplicate prior to drug treatment. After 120 hour treatment, cell number was established using a Coulter Particle Counter (Beckman). Or, cells were plated (0.5 or 1×10^5/well) in 24-well plates (Midwest Scientific), 3×. After 72 hour treatment, cell number established using Coulter Particle Counter (Beckman). Oleic acid-albumin (Sigma Aldrich) was added to media at 5 μM, and was applied adjuvant to drug treatment. Drug stocks were prepared in DMSO (Sigma) at 1000×. EC50 dosing per cell line was calculated using CalcuSyn® analytical software.
A498, ACHN, and Caki1 cell lines were treated with the EC50 dose of each MF-438, ChemBL375265, SSI-1, SSI-4, SSI-3, and SSI-2 with or without concomitant application of OA (5 μg/μL). […] Representative images of A498 cell morphology and density treated with each compound +/−OA are shown in (FIG. 2B).

[3] = test system: THJ16T ATC cell xenograft; experiment: THJ16T xenograft model; assay type: in vivo, female athymic nu/nu mice
Experimental: Formalin-fixed, paraffin-embedded subject tissues were mounted on slides, blocked with Diluent (DakoCytomation) for 30 min, and then probed for SCD (Sigma-Aldrich, #HPA012107). IHC scoring was performed as previously described (von Roemeling C A, Marlow L A, Wei J J, et al. Stearoyl-CoA desaturase 1 is a novel molecular therapeutic target for clear cell renal cell carcinoma. Clin Cancer Res. May 1 2013; 19(9):2368-2380). Cases where insufficient tumor tissue presented were excluded. 20× images were obtained using Scanscope XT and Imagescope software.
1×10^6 THJ16T ATC cells were subcutaneously injected in female athymic nu/nu mice (Harlan Laboratories). Treatment was initiated once tumor volumes reached 50-100 mm^3. MF-438 was suspended in 0.5% carboxymethyl-cellulose containing strawberry drink flavoring(0.1 g/mL) in sterilized H2O at 25 mg/kg in a 100 μl dose, and administered via oral gavage once daily. Carfilzomib was solubilized in DMSO (4% of FC), suspended in 100% corn oil at 4 mg/kg per 50 uL dose and administered via intraperitoneal injection twice weekly on consecutive days. Tumor volume(0.5236[L*W*H]) and body weight were measured 2×/week. N=10 mice/group.
MF-438 was tested in combination with carfilzomib in vivo in a THJ16T xenograft model. […] J Clin Endocrinol Metab. 2010; 95(12):5338-47). […] Saline was administered as necessary. These adverse events resolved 24-48 hours after the second administration of carfilzomib. […] However, no other significant adverse events were observed. […] IHC analysis of tumors resected from each treatment group was performed.

Row | Compound | apoptosis as evaluated by PARP cleavage [1] | rescue of cell proliferation with OA [2] | tumor response / mean tumor volume course ([3]; THJ16T xenograft) | adverse events ([3]; mice bearing THJ16T xenograft) | survivin expression (IHC) ([3]; mouse, in vivo) | CD31 (IHC), tumor vascularization ([3]; versus placebo control) | cleaved caspase-3 (IHC) ([3]; versus placebo control, only the combination group achieved statistical significance) | HERPUD1 (IHC), marker for ER stress ([3]; versus placebo control, statistically significant combinatorial values)
1 | CNC(=O)c1cccc(NC(=O)N2CCC(Oc3ccccc3Cl)CC2)c1 [A939572] | induced apoptosis |  |  |  |  |  |  | 
2 | Cc1nnc(-c2ccc(N3CCC(Oc4ccccc4C(F)(F)F)CC3)nn2)s1 [MF-438, 2-methyl-5-(6-(4-(2-(trifluoromethyl)phenoxy)piperidin-1-yl)pyridazin-3-yl)-1,3,4-thiadiazole] |  | Near total rescue of cell proliferation | no tumor response | Discharge from the eye and squinting | induced survivin expression | trend toward decreased CD31 | increased cleaved caspase-3 | Increased HERPUD1

Reference: patent US11325892B2, “Compounds and methods for treating cancer” (Mayo Foundation for Medical Education and Research, priority 2014, dated 2022)
